Laboratory results reported in patent publication US5177015A, “Onco-developmentally regulated α-N-acetylgalactosaminyltransferase” (Fred Hutchinson Cancer Research Centre, priority 1992, dated 1993).
Ends that are not written are not given here.

What was measured:
[1] = tested on: onco-developmentally regulated α-N-acetylgalactosaminyltransferase; experiment: Solubilization of the enzyme with detergents; type: biochemical, human
From the text: The particulate membrane fraction can be prepared according to the method of Holmes, E. H. et al. ((1985) J. Biol. Chem. 260, 7619-7627).

[2] = tested on: onco-developmentally regulated α-N-acetylgalactosaminyltransferase (HUH-7 homogenate); settings: 1 mM EDTA, 25 mM Tris buffer, pH 7.6
Description: In the present case, the requirement for metal ion for the onco-developmentally regulated α-N-acetylgalactosaminyltransferase was determined in 25 mM Tris buffer, pH 7.6, supplemented with 20 mM MnCl2, 10 mM MgCl2, 1 mM CaCl2 and combinations of two of these or 1 mM EDTA.
Hepatoma cell (HUH-7) homogenates and the synthetic and natural peptides set forth in the Table in Example 1 were prepared as in Example 1 and incubated as described in Example 1 using 25 mM Tris buffer, pH 7.6; supplemented with 20 mM MnCl2, 10 mM MgCl2, 1 mM CaCl2 and combinations of two of these or 1 mM EDTA.

[3] = tested on: α-N-acetylgalactosaminyltransferase in crude homogenates of human hepatoma cells (HUH-7); experiment: Specific activity of α-N-acetylgalactosaminyltransferase toward various acceptors; type: biochemical; settings: 200 nmol acceptor, HUH-7 homogenate, 25 mM Tris, 10 mM MgCl2, 1 mM CaCl2, pH 7.6, 2 hrs at 37° C., FDC-6 immunoaffinity
Description: 8×10^7 hepatoma cells (HUH-7) cultured in serum-free medium (Dulbecco-Modified Eagles Medium) were homogenized in a Potter-Elvehjem homogenizer with 200 μl of distilled water. 300 μl of tris buffer solution, consisting of 25 mM tris, 10 mM MgCl2 and 1 mM CaCl2, pH 7.6, was added. 0.3 nmol UDP[^3 H]-GalNAc (specific activity 8.7 Ci/mmol, New England Nuclear Research Product) and 25 nmol UDP-GalNAc were added and incubated for 2 hrs at 37° C. The incubation mixture was centrifuged at 10,000 rpm for 30 min. Supernatant was applied onto a 0.5 ml Sepharose 4B precolumn, followed by a 0.5 ml FDC-6 immunoaffinity column containing 10 mg of purified FDC-6 antibody/ml as described by Matsuura, H. et al. ((1988) J. Biol. Chem. 263, 3314-3322). Immunoprecipitation using 200 μl of FDC-6 binding Sepharose 4B was also performed as described by Bigler R. D. et al ((1988) J. Immunol. 144 21). Supernatants were incubated for 1 hr at 20° C. The column or immunoprecipitate was washed with 1M NaCl in 50 mM Tris buffer, pH 7.4, and eluted with 2.5M potassium thiocyanate in the same buffer solution. The eluate and washings were pooled and aliquots were counted. The same incubation mixture without addition of synthetic peptides or FN was used as a control.

[4] = tested on: onco-developmentally regulated α-N-acetylgalactosaminyltransferase (hepatoma cell homogenate); experiment: Effect of UDP-GalNAc concentration (Hanes-Woolf plot of saturation data); type: biochemical, human; settings: UDP-GalNAc 0.6 μM to 200 μM, 200 nmol TPI, read-out: apparent Km for UDP-GalNAc
Description: B. Effect of UDP-GalNAc concentration. A Hanes-Woolf plot of saturation data was obtained by varying UDP-GalNAc concentration from 0.6 μM to 200 μM. The reaction was conducted as described in Example 2 in the presence of 100 mg protein and 200 nmol TPI. The specific activity of UDP[^3 H]-GalNAc utilized was 4×10^6 cpm/nmol.
The apparent Km for UDP-GalNAc can be determined by generating a Hanes-Woolf plot of saturation data obtained by varying the UDP-GalNAc concentration at a constant cellular or tissue protein concentration and a constant substrate concentration. A preferred substrate for this assay is TPI.
A Hanes-Woolf plot of saturation data was obtained by varying UDP-GalNAc concentration from 0.6 μM to 200 μM. The reaction as conducted as described in Example 1 in the presence of 100 mg protein of hepatoma cell homogenate and 200 nmol TPI. The specific activity of the UDP[^3 H]-GalNAc used was 4×10^6 cpm/nmol. The reacted samples were also treated as described in Example 1.

[5] = tested on: onco-developmentally regulated α-N-acetylgalactosaminyltransferase (HUH-7 homogenate); experiment: Variation of incubation time (kinetics of α-GalNAc transfer to synthetic peptide); type: biochemical, human; settings: 200 nmol TPI, Tris pH 7.6, 37°, incubated 10 min. to 24 hours
Description: C. Variation of incubation time. The standard reaction mixture described in Example 1 using TPI was incubated for 10 min to 24 hr. open circles, with TPI; closed circles, without TPI (control).
In order to determine the kinetics of α-GalNAc transfer to synthetic peptide, a reaction mixture containing 12.5 μmol Tris, pH 7.6, 200 nmol TPI, 0.3 nmol UDP[^3 H]-GalNAc, 25 nmol UDP-GalNAc, 5 μmol MgCl2, 0.5 μmol CaCl2 and homogenized hepatoma cells (HUH-7) was incubated for 10 min. to 24 hours at 37°. A parallel control was run without TPI. At the end of the incubation periods, the samples were treated as described in Example 1.

Molecule: Triton X-100
- Effect of solubilization with detergent on enzyme activity [1]: does not enhance enzyme activity

Molecule: O=C(O)CN(CCN(CC(=O)O)CC(=O)O)CC(=O)O [EDTA]
- Enzyme activity in the presence of EDTA [2]: totally abolished

Molecule: thr-pro-phe-val-thr-his-pro-gly-tyr-asp-thr-gly-asn-gly-ile-gln-leu-pro-gly-thr-ser-gly-gln-gln-pro-ser-val-gly-gln-gln (TPFVTHPGYDTGNGIQLPGTSGQQPSVGQQ) [TPQ]
- Activity (specific activity of the enzyme to the acceptor) [3]: 0.06 pmol/hr/mg protein

Molecule: C[C@H](CCC(=O)NCCC[N+](C)(C)CC(O)CS(=O)(=O)[O-])[C@H]1CC[C@H]2[C@@H]3[C@H](O)C[C@@H]4C[C@H](O)CC[C@]4(C)[C@H]3C[C@H](O)[C@]12C (some centres unmarked) [CHAPSO, 3-(3-cholamidopropyldimethylammonio)-1-(20-hydroxy-1-propanesulfonate)]
- Effect of solubilization with detergent on enzyme activity [1]: does not enhance enzyme activity

Molecule: CC(=O)NC1C(OP(=O)(O)OP(=O)(O)OCC2OC(n3ccc(=O)[nH]c3=O)C(O)C2O)OC(CO)C(O)C1O (centres unmarked) [UDP-GalNAc]
- Km [4]: ~48 µM

Molecule: thr-pro-phe-val-thr-his-pro-gly-tyr-asp-thr-gly-asn-gly-ile (TPFVTHPGYDTGNGI) [TPI]
- Activity (specific activity of the enzyme to the acceptor) [3]: 0.11 pmol/hr/mg protein
- Time over which α-GalNAc transfer to synthetic peptide is linear [5]: about 2 hours

Molecule: VTHPGY [VTY, val-thr-his-pro-gly-tyr]
- Activity (specific activity of the enzyme to the acceptor) [3]: 0.03 pmol/hr/mg protein
